In the series the test system is CCRIS mutagenicity, Ames/micronucleus/aberration tests. As to the kind of experiment: CCRIS mutagenicity studies.
[1] abbreviates: Test System: AMES SALMONELLA TYPHIMURIUM, Strain/Indicator: TA98, Metabolic Activation: RAT, LIVER, S-9, AROCLOR 1254, Method: STANDARD PLATE.
[2] abbreviates: Test System: AMES SALMONELLA TYPHIMURIUM, Strain/Indicator: TA1535, Metabolic Activation: RAT, LIVER, S-9, AROCLOR 1254, Method: STANDARD PLATE.

Calls of active or inactive are those of the source. The rule behind the calls is not given here. Where a SMILES comes first, the peptide text is derived from it. [ ]: non-standard residue; d: D form. pGlu = O=C1CC[C@@H](C(=O)O)N1; Thz = O=C(O)[C@@H]1CSCN1

In the case of `Cc1c(N)nc(C)c2c1[nH]c1ccccc12`, the mutagenic call reads like this: (Test System: AMES SALMONELLA TYPHIMURIUM, Strain/Indicator: TA98, Metabolic Activation: HUMAN, BLOOD, CYTOSOL, Method: PREINCUBATION) “active; positive”; (Test System: AMES SALMONELLA TYPHIMURIUM, Strain/Indicator: TA98, Metabolic Activation: MONKEY, LIVER, S-9, Method: PREINCUBATION) “active; positive”; (Test System: AMES SALMONELLA TYPHIMURIUM, Strain/Indicator: TA98, Metabolic Activation: MOUSE, LIVER, MICROSOMES, TCDD, Method: STANDARD PLATE) “active; positive”; (Test System: AMES SALMONELLA TYPHIMURIUM, Strain/Indicator: TA98, Metabolic Activation: MOUSE, LIVER, MICROSOMES, Method: STANDARD PLATE) “active; positive”; (Test System: AMES SALMONELLA TYPHIMURIUM, Strain/Indicator: TA98, Metabolic Activation: RAT, BLADDER, S-9, PCB, Method: FLUCTUATION TEST) “active; positive”; (Test System: AMES SALMONELLA TYPHIMURIUM, Strain/Indicator: TA98, Metabolic Activation: RAT, HEPATOCYTES, AROCLOR 1254, Method: PREINCUBATION) “active; positive”. Also, the mutagenic call reads like this: (Test System: AMES SALMONELLA TYPHIMURIUM, Strain/Indicator: TA98, Metabolic Activation: RAT, LIVER, S-9, AROCLOR 1254, Method: PREINCUBATION) “active; positive”; (Test System: AMES SALMONELLA TYPHIMURIUM, Strain/Indicator: TA100, Metabolic Activation: RAT, BLADDER, S-9, PCB, Method: FLUCTUATION TEST) “active; positive”; (Test System: AMES SALMONELLA TYPHIMURIUM, Strain/Indicator: TA100, Metabolic Activation: RAT, LIVER, S-9, AROCLOR 1254, Method: PREINCUBATION) “inactive; negative”; (Test System: AMES SALMONELLA TYPHIMURIUM, Strain/Indicator: YG1019, Metabolic Activation: RAT LIVER S-9, AROCLOR, Method: PREINCUBATION) “active; positive”; (Test System: CHINESE HAMSTER V-79, Strain/Indicator: V-79/8-AZAGUANINE, Metabolic Activation: NONE, Method: SUSPENSION/PLATE) “active; positive”; (Test System: CHINESE HAMSTER V-79, Strain/Indicator: V-79/8-AZAGUANINE, Metabolic Activation: S-9, Method: SUSPENSION/PLATE) “active; positive”. Further, the mutagenic call is, setting by setting: (Test System: CHINESE HAMSTER V-79, Strain/Indicator: V-79/OUABAIN, Metabolic Activation: NONE, Method: SUSPENSION/PLATE) “inactive; negative”; (Test System: CHINESE HAMSTER V-79, Strain/Indicator: V-79/OUABAIN, Metabolic Activation: S-9, Method: SUSPENSION/PLATE) “inactive; negative”; (Test System: UDS HAMSTER HEPATOCYTES, Strain/Indicator: THY INCORP, Metabolic Activation: NONE, Method: LIQUID SCINTILLATION COUNTING) “active; positive”; (Test System: UDS HUMAN HEPATOCYTES, Strain/Indicator: THY INCORP, Metabolic Activation: NONE, Method: AUTORADIOGRAPHY) “active; positive”; (Test System: UDS MOUSE HEPATOCYTES, Strain/Indicator: THY INCORP, Metabolic Activation: NONE, Method: AUTORADIOGRAPHY) “active; positive”; (Test System: UDS RAT HEPATOCYTES, Strain/Indicator: THY INCORP, Metabolic Activation: NONE, Method: AUTORADIOGRAPHY) “inactive; negative”. For the same compound, the mutagenic call (Test System: UDS RAT HEPATOCYTES, Strain/Indicator: THY INCORP, Metabolic Activation: NONE, Method: LIQUID SCINTILLATION COUNTING) is “inactive; negative”.
With `O=C1CC[C@@H](C(=O)N2CSC[C@H]2C(=O)O)N1` ([pGlu]-[Thz]-OH), the mutagenic call by setting is: (Test System: AMES SALMONELLA TYPHIMURIUM, Strain/Indicator: TA98, Metabolic Activation: NONE, Method: STANDARD PLATE) “inactive; negative”; under setting [1], “inactive; negative”; (Test System: AMES SALMONELLA TYPHIMURIUM, Strain/Indicator: TA100, Metabolic Activation: NONE, Method: STANDARD PLATE) “inactive; negative”; (Test System: AMES SALMONELLA TYPHIMURIUM, Strain/Indicator: TA100, Metabolic Activation: RAT, LIVER, S-9, AROCLOR 1254, Method: STANDARD PLATE) “inactive; negative”; (Test System: AMES SALMONELLA TYPHIMURIUM, Strain/Indicator: TA1535, Metabolic Activation: NONE, Method: STANDARD PLATE) “inactive; negative”; under setting [2], “inactive; negative”. For the same compound, the mutagenic call (Test System: AMES SALMONELLA TYPHIMURIUM, Strain/Indicator: TA1537, Metabolic Activation: NONE, Method: STANDARD PLATE) is “inactive; negative”; the mutagenic call (Test System: AMES SALMONELLA TYPHIMURIUM, Strain/Indicator: TA1537, Metabolic Activation: RAT, LIVER, S-9, AROCLOR 1254, Method: STANDARD PLATE) is “inactive; negative”; the mutagenic call (Test System: AMES SALMONELLA TYPHIMURIUM, Strain/Indicator: TA1538, Metabolic Activation: NONE, Method: STANDARD PLATE) was “inactive; negative”; the mutagenic call (Test System: AMES SALMONELLA TYPHIMURIUM, Strain/Indicator: TA1538, Metabolic Activation: RAT, LIVER, S-9, AROCLOR 1254, Method: STANDARD PLATE) is “inactive; negative”; the mutagenic call (Test System: MOUSE LYMPHOMA, Strain/Indicator: L5178Y (TK+/TK-), Metabolic Activation: NONE, Method: SUSPENSION/PLATE) was “inactive; negative”; the mutagenic call (Test System: MOUSE LYMPHOMA, Strain/Indicator: L5178Y (TK+/TK-), Metabolic Activation: RAT, LIVER, S-9, AROCLOR 1254, Method: SUSPENSION/PLATE) is “inactive; negative”. Moreover, the mutagenic call was “inactive; negative” (Test System: UDS HELA CELLS, Strain/Indicator: THY INCORP, Metabolic Activation: NONE, Method: AUTORADIOGRAPHY) and “inactive; negative” (Test System: UDS HELA CELLS, Strain/Indicator: THY INCORP, Metabolic Activation: RAT, LIVER, S-9, AROCLOR 1254, Method: AUTORADIOGRAPHY).
For `Oc1cc2ccccc2c2ccccc12`, the mutagenic call is, setting by setting: under setting [1], “inactive; negative”; under setting [2], “active; positive”.

The values above are taken from PubChem BioAssay AID1259407 (Chemical Carcinogenesis Research Information System (CCRIS), 2018).
